Patent US20240358829A1, “Lymphocyte Population and Methods for Producing Same” (AVM Biotechnology, LLC, priority 2021, published 2024)
Values joined by “and” are separate entries in the source; they are usually repeats but may differ in a detail not shown here. Equal entries are not always repeated.

Test system: CD56+γδTCR+iTCR+ cells
Assay: AVM0703 R/R NHL clinical trial, whole blood flow cytometry
Assay type: in vivo, human
Experimental: FIG. 15. 101-001 size (FSC) and complexity (SSC) scattergram of AVM_NKT cells. […] Blood was stained with panel antibodies based for 15 minutes in the dark at Room Temperature. RBC lysis was performed by addition of 1 mL of 1×BD FACS Lysing Solution (BD Bioscience), diluted with MilliQ water, for 10 minutes in the dark at Room Temperature. Samples were washed with 2 mL 1×DPBS CMF (Gibco) and resuspended in 300 μL of 1×DPBS CMF before 5 μL of 7AAD (Biolegend) was added to each sample for live/dead cell determination and incubated for 5 minutes in the dark at Room Temperature. 250 μL of sample were taken up for acquisition on Macsquant 16 Flow Cytometer (Miltenyi, Serial #40150). Live white blood cells were gated for CD56+ cells co-expressing gamma delta TCR and the invariant TCR and labelled red in the forward versus side scattergram. Red-labelled cells fall within the forward versus side scattergrams where large granular cells such as neutrophils and large granular lymphocytes are known to fall.
For characterisation of the induced/mobilized population of NKT-like cells (AVM-NKT) in humans, whole blood from human subjects was drawn in K2 EDTA Vacutainer tube (367862, BD Biosciences, NJ) and shipped to AVM Biotechnology at room temperature. 100 μl of whole blood was stained with the following antibodies: CD45 AF700 (2D1), CD16 APC (3G8), INKT PECy7 (6B11), CD8 PE (SK1), CD14 FITC (M5E2), CD56 BV650 (5.1H11), γδTCR BV510 (B1), CD19 BV421 (HIB19), NKp44 APC (P44-8) (all from Biolegend, San Diego, CA) and CD3 APCVio770 (BW264/56), (Miltenyi Biotec, San Jose, CA), 7-AAD, (Biolegend, San Diego CA) was included to distinguish the live and dead cells.

[1] = patient 108-001, 1st 9 mg/kg infusion, 1 hour
[2] = patient 108-001, 1st 9 mg/kg infusion, Day 3
[3] = patient 108-001, 1st 9 mg/kg infusion, Day 14
[4] = patient 108-001, 2nd 9 mg/kg infusion, 1 hour
[5] = patient 108-001, 2nd 9 mg/kg infusion, Day 3
[6] = patient 108-001, 2nd 9 mg/kg infusion, Day 14
[7] = patient 108-002, 18 mg/kg, 1 hour post-infusion
[8] = patient 108-002, 18 mg/kg, Day 3
[9] = patient 108-002, 18 mg/kg, Day 14
[10] = patient 108-003, 12 mg/kg, 1 hour post-infusion
[11] = patient 108-003, 12 mg/kg, Day 3
[12] = patient 108-003, 12 mg/kg, Day 14

## C[C@@H]1C[C@H]2[C@@H]3CCC4=CC(=O)C=C[C@]4(C)[C@@]3(F)[C@@H](O)C[C@]2(C)[C@@]1(O)C(=O)COP(=O)(O)O [AVM0703, dexamethasone sodium phosphate]
[1]
  CD45 (as % of CD56+ γδTCR+ iTCR+ cells): 96%
  CD56+ γδTCR+ iTCR+ % of total WBCs: 0.72%
  CD56+ γδTCR+ iTCR+ cells/uL: 112 cells/uL
[2]
  CD3 (as % of CD56+ γδTCR+ iTCR+ cells): 24%
  CD8hi (as % of CD56+ γδTCR+ iTCR+ cells): 2%
  CD8med (as % of CD56+ γδTCR+ iTCR+ cells): 16%
  CD14+ (as % of CD56+ γδTCR+ iTCR+ cells): 50%
  CD16 (as % of CD56+ γδTCR+ iTCR+ cells): 80%
  CD19+ (as % of CD56+ γδTCR+ iTCR+ cells): 24%
  CD45 (as % of CD56+ γδTCR+ iTCR+ cells): 98%
  CD56+ γδTCR+ iTCR+ % of total WBCs: 0.22%
  CD56+ γδTCR+ iTCR+ cells/uL: 36 cells/uL and 36.0 cells/uL
[3]
  CD56+ γδTCR+ iTCR+ % of total WBCs: 0.06%
  CD56+ γδTCR+ iTCR+ cells/uL: 3 cells/uL
[4]
  CD3 (as % of CD56+ γδTCR+ iTCR+ cells): 23%
  CD8hi (as % of CD56+ γδTCR+ iTCR+ cells): 2.2%
  CD8med (as % of CD56+ γδTCR+ iTCR+ cells): 4.4%
  CD14+ (as % of CD56+ γδTCR+ iTCR+ cells): 81%
  CD16 (as % of CD56+ γδTCR+ iTCR+ cells): 89%
  CD19+ (as % of CD56+ γδTCR+ iTCR+ cells): 26%
  CD45 (as % of CD56+ γδTCR+ iTCR+ cells): 13%
  CD56+ γδTCR+ iTCR+ % of total WBCs: 0.84%
  CD56+ γδTCR+ iTCR+ cells/uL: 26 cells/uL
[5]
  CD3 (as % of CD56+ γδTCR+ iTCR+ cells): 49%
  CD8hi (as % of CD56+ γδTCR+ iTCR+ cells): 1%
  CD8med (as % of CD56+ γδTCR+ iTCR+ cells): 55%
  CD14+ (as % of CD56+ γδTCR+ iTCR+ cells): 35%
  CD16 (as % of CD56+ γδTCR+ iTCR+ cells): 58%
  CD19+ (as % of CD56+ γδTCR+ iTCR+ cells): 17%
  CD45 (as % of CD56+ γδTCR+ iTCR+ cells): 11%
  CD56+ γδTCR+ iTCR+ % of total WBCs: 0.19%
  CD56+ γδTCR+ iTCR+ cells/uL: 10.2 cells/uL
[6]
  CD3 (as % of CD56+ γδTCR+ iTCR+ cells): 22%
  CD8hi (as % of CD56+ γδTCR+ iTCR+ cells): 4%
  CD8med (as % of CD56+ γδTCR+ iTCR+ cells): 20%
  CD14+ (as % of CD56+ γδTCR+ iTCR+ cells): 76%
  CD16 (as % of CD56+ γδTCR+ iTCR+ cells): 82%
  CD19+ (as % of CD56+ γδTCR+ iTCR+ cells): 28%
  CD45 (as % of CD56+ γδTCR+ iTCR+ cells): 84%
  CD56+ γδTCR+ iTCR+ % of total WBCs: 0.43%
  CD56+ γδTCR+ iTCR+ cells/uL: 20 cells/uL
Patient 108-001, after the third 9 mg/kg infusion
  AVM_NKT CD56+γδTCR+iTCR+ cells in the blood: not evident in the blood
Patient 108-002, 18 mg/kg
  CD56+gdTCR+ inv TCR+ cells induced: YES
[7]
  CD3 (as % of CD56+ γδTCR+ iTCR+ cells): 83.2%
  CD8hi (as % of CD56+ γδTCR+ iTCR+ cells): 88%
  CD8med (as % of CD56+ γδTCR+ iTCR+ cells): 12.3%
  CD14+ (as % of CD56+ γδTCR+ iTCR+ cells): 79%
  CD16 (as % of CD56+ γδTCR+ iTCR+ cells): 87%
  CD19+ (as % of CD56+ γδTCR+ iTCR+ cells): 98%
  CD45 (as % of CD56+ γδTCR+ iTCR+ cells): 100%
  CD56+ γδTCR+ iTCR+ cells/uL: 49.5 cells/uL
[8]
  CD56+ γδTCR+ iTCR+ % of total WBCs: 0.04%
  CD56+ γδTCR+ iTCR+ cells/uL: 2.3 cells/uL
[9]
  CD3 (as % of CD56+ γδTCR+ iTCR+ cells): 72%
  CD8hi (as % of CD56+ γδTCR+ iTCR+ cells): 73%
  CD8med (as % of CD56+ γδTCR+ iTCR+ cells): 16.5%
  CD14+ (as % of CD56+ γδTCR+ iTCR+ cells): 80%
  CD16 (as % of CD56+ γδTCR+ iTCR+ cells): 41.2%
  CD19+ (as % of CD56+ γδTCR+ iTCR+ cells): 80%
  CD45 (as % of CD56+ γδTCR+ iTCR+ cells): 84%
  CD56+ γδTCR+ iTCR+ % of total WBCs: 0.25%
  CD56+ γδTCR+ iTCR+ cells/uL: 9.7 cells/uL
Patient 108-003, 12 mg/kg
  CD56+gdTCR+ inv TCR+ cells induced: YES
[10]
  CD3 (as % of CD56+ γδTCR+ iTCR+ cells): 14%
  CD8hi (as % of CD56+ γδTCR+ iTCR+ cells): 1.7%
  CD8med (as % of CD56+ γδTCR+ iTCR+ cells): 9%
  CD14+ (as % of CD56+ γδTCR+ iTCR+ cells): 43%
  CD16 (as % of CD56+ γδTCR+ iTCR+ cells): 85%
  CD19+ (as % of CD56+ γδTCR+ iTCR+ cells): 40%
  CD45 (as % of CD56+ γδTCR+ iTCR+ cells): 95%
  CD56+ γδTCR+ iTCR+ % of total WBCs: 0.4%
  CD56+ γδTCR+ iTCR+ cells/uL: 31.8 cells/uL
[11]
  CD3 (as % of CD56+ γδTCR+ iTCR+ cells): 80%
  CD8hi (as % of CD56+ γδTCR+ iTCR+ cells): 12.6%
  CD8med (as % of CD56+ γδTCR+ iTCR+ cells): 45%
  CD14+ (as % of CD56+ γδTCR+ iTCR+ cells): 68%
  CD16 (as % of CD56+ γδTCR+ iTCR+ cells): 75%
  CD19+ (as % of CD56+ γδTCR+ iTCR+ cells): 11.5%
  CD45 (as % of CD56+ γδTCR+ iTCR+ cells): 67%
  CD56+ γδTCR+ iTCR+ % of total WBCs: 0.6%
  CD56+ γδTCR+ iTCR+ cells/uL: 58.4 cells/uL
[12]
  CD3 (as % of CD56+ γδTCR+ iTCR+ cells): 90%
  CD8hi (as % of CD56+ γδTCR+ iTCR+ cells): 8%
  CD8med (as % of CD56+ γδTCR+ iTCR+ cells): 84%
  CD14+ (as % of CD56+ γδTCR+ iTCR+ cells): 87%
  CD16 (as % of CD56+ γδTCR+ iTCR+ cells): 89%
  CD19+ (as % of CD56+ γδTCR+ iTCR+ cells): 12.4%
  CD45 (as % of CD56+ γδTCR+ iTCR+ cells): 94%
  CD56+ γδTCR+ iTCR+ % of total WBCs: 0.83%
  CD56+ γδTCR+ iTCR+ cells/uL: 94 cells/uL
Patient 108-004, 12 mg/kg, one hour, 3 days or 14 days after infusion (pre-infusion 0.09%, 4.6 cells/uL)
  CD56+γδTCR+invTCR+ cells in blood: no increase
